From PMC10460844, “Real‐Time Monitoring of Multitarget Antimicrobial Mechanisms of Peptoids Using Label‐Free Imaging with Optical Diffraction Tomography” (Advanced Science, 2023)
Converted amounts (≈) assume the structure as drawn. Read-outs that look alike come from different tables or passages of the source. Square brackets hold non-standard residues; d marks the D form. Peptide text beside a SMILES is read from it. Gly(N(CH2)2(3-indolyl)) = O=C(O)CNCCc1c[nH]c2ccccc12; Nspe = C[C@H](NCC(=O)O)c1ccccc1; Nlys = NCCCCNCC(=O)O

Key:
[1] = Analytical reversed-phase HPLC elution (hydrophobicity); type: physicochemical; settings: Table 1; analytical RP-HPLC, SunFire C18 […] 250 mm, water/ACN + 0.1% TFA, 5% B 2 min then linear to 100% B over 30 min, 1 mL/min, UV 220 nm; used as measure of hydrophobicity
Outline: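 Analytical reversed-phase HPLC on a C18 column (4.6 × 250 mm, 5 μm) at 1 mL/min, water/acetonitrile each with 0.1% TFA. Held at 5% B for 2 min, then linear to 100% B over 30 min and held 5 min, with UV detection at 220 nm; retention time (tR) serves as hydrophobicity measure.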

rat erythrocytes = assay: Hemolysis assay; type: cell-based
Outline: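 Washed Sprague-Dawley rat erythrocytes (10% suspension in PBS pH 7.4) mixed with peptoids (0–100 µM), 60 min at 37 °C; supernatant A540 expressed as % of 1% Triton X-100 lysis. HC10/HC50 are concentrations giving 10%/50% hemolysis; Hmax is hemolysis at 100 µM.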

E. coli ATCC 25922 [2] = type: cell-based, Escherichia coli
Outline: (§1)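 Visual turbidity endpoint defines the MIC. Inoculum: secondary culture diluted to OD 0.001, ≈2–5 × 10^5 CFU mL^−1, in cation-adjusted MHB2 with 0.02% bovine serum albumin and 0.001% acetic acid; six 2-fold dilutions from 25 µM, run in triplicate.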

S. aureus ATCC 25923 = type: cell-based, Staphylococcus aureus
Outline: as §1

P. aeruginosa KCTC 1637 = type: cell-based
E. coli ATCC 25922 [3] = assay: NPN uptake assay (outer membrane); type: cell-based; settings: E. coli ATCC 25922, 5 mM HEPES pH 7.2, 10 µM NPN, fluorescence
Procedure: 14. In vitro biological assays […]
The ability of peptoids to increase the permeability of the outer membrane of Gram-negative bacteria was determined by measuring the incorporation of the NPN fluorescent dye into the outer membrane of E. coli ATCC 25922. Bacterial cells were suspended to a final concentration of OD600 = 0.05 in 5 mM HEPES buffer, pH 7.2, containing 5 mM KCN. Then […]
200 μL NPN dye was added to wells of a 96 well plate to produce a final concentration of 10 μM, and the background fluorescence was recorded (λex = 350 nm, λem = 420 nm). Aliquots of peptoids were added to the well, and fluorescence was recorded as a function of time until there was no further increase in fluorescence. Increases of the permeability of the outer membrane after the addition of peptoids was reflected by increased fluorescence values as a result of NPN incorporation into the membrane. […]

E. coli ML-35 cells = assay: ONPG hydrolysis assay (inner membrane); type: cell-based; settings: 1.5 mM ONPG, 10 mM sodium phosphate pH 7.4, absorbance 405 nm
Procedure: The permeability of the inner membrane was determined using E. coli ML-35 cells […]
The intact bacterial inner membrane is non-permeable to o-nitrophenyl-β-D-galactopyranoside (OPNG), a chromogenic substrate of the β-galactosidase.
Following damage to the inner membrane, OPNG enters the cells and is metabolized by β-galactosidase creating a chromogenic […]. E. coli cells were washed in 10 mM sodium phosphate (pH 7.4) containing 100 mM NaCl and resuspended in the same buffer at a final concentration of OD600 = 0.5 containing 1.5 mM ONPG. The hydrolysis of ONPG and generation of o-nitrophenol over time were monitored as absorbance change at 405 nm following the addition of peptoids. […]

[4] = Table S2, broth dilution, MHB2, 37 °C 24 h, max 25 µM, mean of triplicate
[5] = Table S3, counter-ion exchange series (TFA, HCl, AcOH salts), mean of triplicate
[6] = Table S3, counter-ion exchange series, mean of triplicate

Row | Compound | HPLC elution (%ACN) [1] | MIC E. coli ATCC25922 (E. coli ATCC 25922 [2]; [4]) | MIC E. coli ATCC25922 (E. coli ATCC 25922 [2]; [5]) | MIC S. aureus ATCC25923 (S. aureus ATCC 25923; [4]) | MIC S. aureus ATCC25923 (S. aureus ATCC 25923; [6]) | outer membrane disruption (NPN uptake) (E. coli ATCC 25922 [3]) | inner membrane disruption (ONPG hydrolysis) (E. coli ML-35 cells) | H max (100 µM) (rat erythrocytes) | HC10 (rat erythrocytes; pH 7.4) | HC50 (rat erythrocytes; pH 7.4) | HC10 (rat erythrocytes; red cells of rat) | MIC P. aeruginosa KCTC 1637 (P. aeruginosa KCTC 1637; KCTC 1637) | also measured
1 | C[C@@H](c1ccccc1)N(CC(N)=O)C(=O)CN(C(=O)CN(CCCCN)C(=O)CN(C(=O)CN(C(=O)CN(CCCCN)C(=O)CN(C(=O)CN(C(=O)CN(CCCCN)C(=O)CN(C(=O)CN(C(=O)CNCCCCN)[C@@H](C)c1ccccc1)[C@@H](C)c1ccccc1)[C@@H](C)c1ccccc1)[C@@H](C)c1ccccc1)[C@@H](C)c1ccccc1)[C@@H](C)c1ccccc1)[C@@H](C)c1ccccc1 [peptoid 1, reference compound] (H-[Nlys][Nspe][Nspe][Nlys][Nspe][Nspe][Nlys][Nspe][Nspe][Nlys][Nspe][Nspe]-NH2) | 54.5 %ACN | 6.3 µM (≈ 11.5 µg/mL) | 6.3 µM | 1.6 µM (≈ 2.91 µg/mL) | 1.6 µM (≈ 2.91 µg/mL) | strongly disrupted | strongly disrupted |  |  |  |  |  | HC10 (rat erythrocytes; Table S2, 10% hemolysis in rat erythrocytes, PBS pH 7.4, 37 °C 60 min, mean of triplicate): 8.3 µM; HC50 (rat erythrocytes; Table S2, 50% hemolysis in rat erythrocytes, PBS pH 7.4, 37 °C 60 min, mean of triplicate): 22.9 µM; HC10 (rat erythrocytes; Table S3, counter-ion exchange series, 10% hemolysis in rat erythrocytes, mean of triplicate): 15.9 µM; HC50 (rat erythrocytes; Table S3, counter-ion exchange series, 50% hemolysis in rat erythrocytes, mean of triplicate): 49.0 µM; Hmax (100 µM) (rat erythrocytes; Table S3, counter-ion exchange series, hemolysis at 100 µM): 72.1±2.1%; H max (100 µM) (rat erythrocytes; percentage of hemolysis at the highest concentration tested (100 µM), rat erythrocytes): 112.3 ± 0.7%; MIC P. aeruginosa KCTC 1637 (P. aeruginosa KCTC 1637; gram-negative pathogenic strain, maintained in refined LB media, mean of triplicates): 6.3 µM (≈ 11.5 µg/mL)
2 | C[C@@H](c1ccccc1)N(CC(=O)N(CCCCN)CC(=O)N(CC(=O)N(CC(=O)N(CCCCN)CC(=O)N(CC(=O)N(CC(=O)N(CCCCN)CC(=O)N(CCc1c[nH]c2ccccc12)CC(=O)N(CCc1c[nH]c2ccccc12)CC(N)=O)[C@@H](C)c1ccccc1)[C@@H](C)c1ccccc1)[C@@H](C)c1ccccc1)[C@@H](C)c1ccccc1)C(=O)CN(C(=O)CNCCCCN)[C@@H](C)c1ccccc1 [peptoid 11] (H-[Nlys][Nspe][Nspe][Nlys][Nspe][Nspe][Nlys][Nspe][Nspe][Nlys][Gly(N(CH2)2(3-indolyl))][Gly(N(CH2)2(3-indolyl))]-NH2) | 54.0 %ACN | 6.3 µM (≈ 12 µg/mL) |  | 1.6 µM (≈ 3.04 µg/mL) | 1.6 µM (≈ 3.04 µg/mL) | strongly disrupted | strongly disrupted | 103.4 ± 3.2% | 8.3 µM | 22.2 µM | 6.9 µM | 3.1 µM (≈ 5.88 µg/mL) | Hmax (100 µM) (rat erythrocytes): 111.9±2.7%; HC50 (rat erythrocytes; red cells of rat): 27.5 µM; MIC E. coli ATCC25922 (E. coli ATCC 25922 [2]; ATCC 25922): 3.1 µM (≈ 5.88 µg/mL)
3 | C[C@@H](c1ccccc1)N(CC(=O)N(CCCCN)CC(=O)N(CCc1c[nH]c2ccccc12)CC(=O)N(CCc1c[nH]c2ccccc12)CC(N)=O)C(=O)CN(CCCCN)C(=O)CN(CCCCN)C(=O)CN(C(=O)CN(C(=O)CN(CCCCN)C(=O)CN(C(=O)CN(C(=O)CNCCCCN)[C@@H](C)c1ccccc1)[C@@H](C)c1ccccc1)[C@@H](C)c1ccccc1)[C@@H](C)c1ccccc1 [peptoid 29] (H-[Nlys][Nspe][Nspe][Nlys][Nspe][Nspe][Nlys][Nlys][Nspe][Nlys][Gly(N(CH2)2(3-indolyl))][Gly(N(CH2)2(3-indolyl))]-NH2) | 48.6 %ACN | 6.3 µM (≈ 11.7 µg/mL) | 6.3 µM | 6.3 µM (≈ 11.7 µg/mL) |  | somewhat lower | lower than that seen with more hydrophobic peptoids | 9.8 ± 1.8% | > 100 µM | > 100 µM | 88.6 µM | 3.1 µM (≈ 5.78 µg/mL) | HC50 (rat erythrocytes): > 100 µM; MIC E. coli ATCC25922 (E. coli ATCC 25922 [2]; broth dilution, MHB2 with 0.001% acetic acid and 0.02% BSA, 2–5 × 10^5 CFU/mL, 37 °C 24 h, max 25 µM, mean of triplicates): 6.3 µM (≈ 11.7 µg/mL); MIC S. aureus ATCC25923 (S. aureus ATCC 25923; ATCC 25923): 12.5 µM (≈ 23.3 µg/mL)
